{"source": "patent US20260034088A1", "about": "“SULFOPROPANOIC ACID DERIVATIVES FOR TREATING NEURODEGENERATIVE DISORDERS” (Alzheon, Inc., priority 2018, published 2026)", "key": {"[1]": {"biological_target": "T1, recombinant human Aβ42 peptide (Homo sapiens, UniProt P05067)", "T1 construct": "recombinant human Aβ42 peptide; purchased BioLegend 843801", "T1 sequence (P05067 672-713 limits assumed)": "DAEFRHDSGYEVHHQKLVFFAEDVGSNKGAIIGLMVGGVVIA", "test": "Ion mobility mass spectrometry (IMS MS) anti-Aβ42 oligomer activity", "format": "biochemical", "conditions": "for inhibition of formation of Aβ42 oligomers: after 24 hours in vitro", "method": "The conditions used for mass spectrometry, using a Waters Synapt G2-S, were as follows: positive polarity in sensitivity mode, capillary=2.5 kV, nebulizer=2 mbar, source temperature=80° C., desolvation temperature=60° C., sample cone setting=35 V, source offset setting=60 V, and mass range=500 to 4000 m/z. These conditions were maintained throughout the study to ensure consistency of the data and to avoid influencing the detection of oligomers due to preferential ionization conditions.\nSamples were directly infused into the mass spectrometer at a flow rate of 10 μL/min using a Protea PM-1000 Syringe Pump and Hamilton 1 mL Syringe. The data acquisition of the amyloid peptide was performed using a Waters Synapt G2-S quadrupole time of flight mass spectrometer (Q-TOF MS) with traveling wave ion mobility (Waters Corp., Milford, MA). The data were acquired using the systems sensitivity mode to allow for the detection of the less abundant oligomers. Samples were infused at room temperature. The IMS MS studies were conducted at Protea, Inc. (Morgantown, WV).\n1 mg of recombinant human Aβ42 peptide from BioLegend (99% purity, cat #843801) was reconstituted in 200 μL of Fisher Optima LC/MS grade water (cat #W6-1) and vortexed vigorously for 2 minutes to solubilize the peptide creating a 5 mg/mL solution. Samples were then diluted to a final concentration of 22 pmol/μL prior to incubation. The sample mixtures were then incubated at room temperature for 0, 4 and 24 hours. After the acquisition of incubated samples was completed, the raw data were analyzed using the Waters MassLynx v2.4 suite with DriftScover v2.7 to visualize drift times for the peptide.\nAβ42 species characterization using IMS MS was performed by direct infusion at 22 pmol/μL in water. The peptide was prepared in water to maintain the native state conformation of the peptide and ion mobility data acquisition was performed to detect and characterize the conformational changes of the native state monomer and any oligomers that may have formed during the incubation.\nThe data acquisition for Aβ42 peptide was performed using a Waters Synapt G2-S quadrupole time of flight mass spectrometer (Q-TOF MS) with traveling wave ion mobility (Waters Corp., Milford, MA). The data were acquired using the systems sensitivity mode to allow for the detection of the less abundant oligomers. Samples were infused at room temperature as above.\n1 mg of 3-SPA was reconstituted in 1 mL of Fisher Optima LC/MS grade water (cat #W6-1) and vortexed vigorously for 2 minutes until completely dissolved. The sample was then diluted to create 220 pmol/μL, and […] solutions to perform a 100-fold, and 1,000-fold molar excess for the binding experiments with Aβ42 peptide. […]"}, "[2]": {"test": "Brain penetration of oral 3-SPA in male SD rats (brain, CSF, plasma)", "format": "in vivo, Sprague-Dawley rats", "conditions": "oral 30 mg/kg", "method": "A separate group of animals was dosed orally at 30 mg/kg and terminal brain, CSF and plasma samples were collected at 1, 2, 6, and 24 hr (3 animals for each time point) for bioanalyses of 3-SPA in brain and CSF, and to estimate brain penetration relative to plasma concentrations. The in-life study was performed at Agilux Laboratories (Worcester, MA) following quality standards in line with Good Laboratory Practice. Bioanalyses of rat plasma, CSF and brain was preformed using LC-MS/MS at Nextcea. Prior to processing rat brains for bioanalysis, the brains were perfused to remove pooled blood. Pharmacokinetic data analyses were conducted using Winnonlin Professional v5.0.1 (Pharsight, Mountain View, CA).\nThe plasma concentration of a single dose of 3-SPA, dissolved in saline as a clear solution, administered orally and intravenously to rats at a dose level of 30 mg/kg and 10 mg/kg, respectively, are shown in FIG. 9. Brain, CSF and corresponding plasma levels after a single oral dose of dose of 30 mg/kg of 3-SPA at 1, 2, 6, and 24 hr are shown in FIG. 10. Mean PK curves were used for calculation of pharmacokinetic parameters."}}, "note": "Where “and” joins values, the source holds several entries; their conditions need not be identical. Equal entries are not always repeated.", "data": [{"smiles": "O=C(O)CCS(=O)(=O)O", "note": "[Compound 3-SPA, 3-sulfopropanoic acid]", "values": [{"measurement": "Aβ42 oligomer species detected (not inhibited)", "setting": "[1]; 4 hr incubation, Aβ42:compound 1:1000", "result": "dimers, trimers and pentamers"}, {"measurement": "Aβ42 oligomer species detected (not inhibited)", "setting": "[1]; 24 hours incubation, 1,000-fold excess of compound", "result": "Only pentamers were detected"}, {"measurement": "inhibition of formation of Aβ42 oligomers", "setting": "[1]", "result": "Near complete prevention of formation of Aβ42 oligomers except for pentamers"}, {"measurement": "Brain/Plasma (AUC %)", "setting": "[2]", "result": "25% and 25.3%"}]}, {"smiles": "NCCCS(=O)(=O)O", "note": "[Tramiprosate, 3-amino-1-propanesulfonic acid, reference compound]", "values": [{"measurement": "inhibition of formation of Aβ42 oligomers", "setting": "[1]", "result": "complete inhibition"}]}]}
